≈ marks a conversion by molar mass, not a printed value. Bridge positions count the residues as written; N and C are the ends. Square brackets hold non-standard residues; d marks the D form. Peptide text beside a SMILES is read from it. * marks the point of attachment. Bip = N[C@@H](Cc1ccc(-c2ccccc2)cc1)C(=O)O; dPhe(4-I) = N[C@H](Cc1ccc(I)cc1)C(=O)O; NMe2Val = CC(C)[C@@H](C(=O)*)N(C)C; NMeI = CC[C@H](C)[C@H](NC)C(=O)O; NMeT = CN[C@H](C(=O)O)[C@@H](C)O; 4Pal = N[C@@H](Cc1ccncc1)C(=O)O; Tic = O=C(O)[C@@H]1Cc2ccccc2CN1; NMeL = CN[C@@H](CC(C)C)C(=O)O; S5 = C=CCCC[C@](C)(N)C(=O)O; Hiv = CC(C)[C@H](O)C(=O)O; NMeS = CN[C@@H](CO)C(=O)O; Octanoyl = CCCCCCCC(=O)*; dNMeA = CN[C@H](C)C(=O)O; Sar = CNCC(=O)O
What was measured:
Replicase polyprotein 1a = Replicase polyprotein 1a (Severe acute respiratory syndrome-related coronavirus, UniProt P0C6U8); assay: Inhibition of SARS-CoV MPro using Dabcyl-KTSAVLQSGFRKM-E(Edans)-NH2 as substrate preincubated for 15 mins followed by substrate addition measured after 30 mins by FRET assay
Melanocortin receptor 3 = Melanocortin receptor 3 (Homo sapiens, UniProt P41968); assay: Inhibition of MC3R (unknown origin)
Chain of Melanocortin receptor 3 (P41968 whole entry): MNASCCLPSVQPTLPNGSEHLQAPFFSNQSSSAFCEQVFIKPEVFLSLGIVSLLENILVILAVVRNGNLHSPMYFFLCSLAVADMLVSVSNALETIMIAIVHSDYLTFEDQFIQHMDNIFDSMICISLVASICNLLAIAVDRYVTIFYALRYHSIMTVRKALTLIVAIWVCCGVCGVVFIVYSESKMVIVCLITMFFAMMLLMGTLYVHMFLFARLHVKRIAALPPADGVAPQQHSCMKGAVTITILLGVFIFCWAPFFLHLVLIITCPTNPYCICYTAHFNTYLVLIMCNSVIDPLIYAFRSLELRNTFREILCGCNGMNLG

Mu-type opioid receptor = Mu-type opioid receptor (Homo sapiens, UniProt P35372); assay: Agonist activity at MOR (unknown origin); type: functional
Chain of Mu-type opioid receptor (P35372 whole entry): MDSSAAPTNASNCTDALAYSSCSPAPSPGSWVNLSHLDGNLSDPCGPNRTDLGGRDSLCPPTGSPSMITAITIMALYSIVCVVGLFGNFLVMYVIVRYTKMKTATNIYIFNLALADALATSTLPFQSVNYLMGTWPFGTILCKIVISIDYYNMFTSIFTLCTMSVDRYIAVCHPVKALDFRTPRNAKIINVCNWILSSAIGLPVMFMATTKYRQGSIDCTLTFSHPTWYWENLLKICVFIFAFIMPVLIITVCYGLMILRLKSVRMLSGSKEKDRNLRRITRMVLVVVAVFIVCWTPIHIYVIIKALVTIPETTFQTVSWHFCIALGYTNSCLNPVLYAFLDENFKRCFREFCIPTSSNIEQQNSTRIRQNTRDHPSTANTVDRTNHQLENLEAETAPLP

Escherichia coli [1] = assay: Antibacterial activity against Escherichia coli ATCC 25922 assessed as bacterial growth inhibition; type: functional
Candida albicans = assay: Antifungal activity against Candida albicans ATCC 10231 assessed as fungal growth inhibition; type: functional, organism-based
Escherichia coli [2] = assay: Antibacterial activity against Escherichia coli K12 assessed as reduction in bacterial growth incubated for 16 hrs by Broth micro-dilution assay; type: functional
Staphylococcus aureus [3] = assay: Antibacterial activity against Staphylococcus aureus ATCC 25923 assessed as reduction in bacterial growth incubated for 18 to 20 hrs by broth microdilution assay; type: functional; settings: time 18-20 hrs
Acinetobacter baumannii [4] = assay: Antibacterial activity against Acinetobacter baumannii ATCC 19606 assessed as reduction in microbial growth after 16 hrs by broth microdilution method; type: functional
Pseudomonas aeruginosa [5] = assay: Antibacterial activity against Pseudomonas aeruginosa PAO1 assessed as bacterial growth inhibition by CLSI protocol based microdilution method; type: functional
Staphylococcus aureus [6] = assay: Antibacterial activity against Staphylococcus aureus assessed as reduction in microbial growth by CLSI based broth microdilution method; type: functional
Enterococcus faecalis = assay: Antibacterial activity against Enterococcus faecalis ATCC 29212 assessed as bacterial growth inhibition by agar diffusion assay; type: functional
[7] = Binding affinity to SETD8 (unknown origin) assessed as dissociation constant; design: species or system Homo sapiens
[8] = target: G-protein coupled receptor 52 (Homo sapiens, UniProt Q9Y2T5); assay: Agonist activity at human GPR52 expressed in CHO cells assessed as increase in intracellular cAMP level incubated for 30 mins by Alphascreen assay; type: functional, cell-based
Chain of G-protein coupled receptor 52 (Q9Y2T5 whole entry): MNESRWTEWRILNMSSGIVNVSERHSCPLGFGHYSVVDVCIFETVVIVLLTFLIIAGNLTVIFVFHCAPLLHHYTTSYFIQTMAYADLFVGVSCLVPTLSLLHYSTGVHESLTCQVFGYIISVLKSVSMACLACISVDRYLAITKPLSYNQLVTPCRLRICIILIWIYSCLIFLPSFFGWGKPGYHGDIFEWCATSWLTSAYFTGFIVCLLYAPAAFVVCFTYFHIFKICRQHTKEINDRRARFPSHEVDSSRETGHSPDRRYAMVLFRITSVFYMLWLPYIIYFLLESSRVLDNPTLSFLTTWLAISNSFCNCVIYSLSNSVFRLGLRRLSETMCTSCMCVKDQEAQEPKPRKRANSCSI

Escherichia coli [9] = assay: Antimicrobial activity against Escherichia coli ATCC 25922 assessed as reduction in microbial growth after 24 hrs by CLSI based Mueller-Hinton broth assay; type: functional
Klebsiella pneumoniae = assay: Antimicrobial activity against Klebsiella pneumoniae ATCC 13882 assessed as reduction in microbial growth after 24 hrs by CLSI based Mueller-Hinton broth assay; type: functional
Acinetobacter baumannii [10] = assay: Antibacterial activity against Acinetobacter baumannii ATCC 17978 assessed as reduction in microbial growth after 24 hrs by CLSI based Mueller-Hinton broth assay; type: functional
Pseudomonas aeruginosa [11] = assay: Antimicrobial activity against Pseudomonas aeruginosa ATCC 27853 assessed as reduction in microbial growth after 24 hrs by CLSI based Mueller-Hinton broth assay; type: functional
[12] = target: Amyloid-beta precursor protein (Homo sapiens) (UniProt P05067); assay: Inhibition of amyloid beta42 (unknown origin) aggregation at 10 uM measured after 5 mins by ThT fluorescence based assay relative to control
Chain of Amyloid-beta precursor protein (Homo sapiens) (P05067 whole entry): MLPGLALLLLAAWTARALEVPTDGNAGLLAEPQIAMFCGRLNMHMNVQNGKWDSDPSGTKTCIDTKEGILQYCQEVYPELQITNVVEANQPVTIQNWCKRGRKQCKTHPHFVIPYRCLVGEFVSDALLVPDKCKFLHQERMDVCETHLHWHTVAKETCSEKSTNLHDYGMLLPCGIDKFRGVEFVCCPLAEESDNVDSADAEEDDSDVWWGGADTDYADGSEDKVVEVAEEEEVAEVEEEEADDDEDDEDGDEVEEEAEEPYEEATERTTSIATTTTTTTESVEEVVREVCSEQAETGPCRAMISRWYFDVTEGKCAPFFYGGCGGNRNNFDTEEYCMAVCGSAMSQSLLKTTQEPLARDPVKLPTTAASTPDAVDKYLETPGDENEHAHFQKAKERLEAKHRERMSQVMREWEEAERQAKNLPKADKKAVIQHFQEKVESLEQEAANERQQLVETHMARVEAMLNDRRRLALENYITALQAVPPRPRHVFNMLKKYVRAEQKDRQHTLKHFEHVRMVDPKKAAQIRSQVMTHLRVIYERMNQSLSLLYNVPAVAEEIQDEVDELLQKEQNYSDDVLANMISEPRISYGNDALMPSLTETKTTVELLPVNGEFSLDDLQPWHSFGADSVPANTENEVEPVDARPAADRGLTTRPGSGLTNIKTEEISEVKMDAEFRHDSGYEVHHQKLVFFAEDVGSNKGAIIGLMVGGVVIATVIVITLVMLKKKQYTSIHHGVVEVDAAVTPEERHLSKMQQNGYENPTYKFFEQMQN

[13] = target: Tyrosine-protein kinase FRK (Homo sapiens, UniProt P42685); assay: Inhibition of FRK (unknown origin)
Chain of Tyrosine-protein kinase FRK (P42685 whole entry): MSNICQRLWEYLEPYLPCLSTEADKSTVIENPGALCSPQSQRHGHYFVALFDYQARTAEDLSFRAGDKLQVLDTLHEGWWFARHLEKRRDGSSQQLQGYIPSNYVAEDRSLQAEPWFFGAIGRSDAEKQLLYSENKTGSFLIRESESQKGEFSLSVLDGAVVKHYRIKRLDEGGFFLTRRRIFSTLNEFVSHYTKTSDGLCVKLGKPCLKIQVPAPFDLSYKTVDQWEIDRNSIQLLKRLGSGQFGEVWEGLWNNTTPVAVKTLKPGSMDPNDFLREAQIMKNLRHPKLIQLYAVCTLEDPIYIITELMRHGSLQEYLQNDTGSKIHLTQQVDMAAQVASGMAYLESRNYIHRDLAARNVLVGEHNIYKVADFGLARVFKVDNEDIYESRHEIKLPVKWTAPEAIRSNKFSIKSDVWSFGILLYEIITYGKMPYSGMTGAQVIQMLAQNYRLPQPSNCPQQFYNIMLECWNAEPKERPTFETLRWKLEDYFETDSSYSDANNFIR

[14] = Half life in human plasma; type: ADME, cell-free
[15] = Inhibition of GABA-A receptor (unknown origin); design: species or system Homo sapiens
Cryptococcus neoformans = assay: Antifungal activity against Cryptococcus neoformans ATCC 32045 assessed as inhibition of fungal growth incubated for 72 hrs by broth microdilution method; type: functional
HeLa = assay: Antiproliferative activity against human HeLa cells assessed as reduction in cell viability by MTT assay; type: functional, cell-based

Compound: CC[C@H](C)[C@H]1C(=O)N2CCC[C@H]2C(=O)O[C@H](C(C)(C)C)C[C@@H](C)C[C@H](O)[C@H](C)C2=N[C@@H](CCC(=O)N[C@@H](Cc3ccc(OC)cc3)C(=O)N(C)[C@@H](C)C(=O)N1C)CS2 [APRATOXIN S4]
- IC50 (Replicase polyprotein 1a): 170 nM

Compound: CC(=O)N[C@@H](Cc1c[nH]cn1)C(=O)N[C@H](Cc1ccc(I)cc1)C(=O)N[C@@H](CCCNC(=N)N)C(=O)N1Cc2ccccc2C[C@H]1C(N)=O (Ac-H[dPhe(4-I)]R[Tic]-NH2)
- IC50 (Melanocortin receptor 3): 290 nM

Compound: N=C(N)NCCC[C@@H]1C(=O)N[C@@H](Cc2ccccc2)C(=O)N(CC(N)=O)CCNC(=O)NCCCCCCN1C(=O)[C@@H](N)Cc1ccc(O)cc1 (mixture of isomers)
- EC50 (Mu-type opioid receptor): 46 nM

Compound: CC(=O)N[C@@H](Cc1cnc[nH]1)C(=O)N[C@H](Cc1ccccc1)C(=O)N[C@@H](CCCN=C(N)N)C(=O)N[C@@H](Cc1c[nH]c2ccccc12)C(N)=O
- IC50 (Melanocortin receptor 3): 560 nM

Compound: H-KKKKKKAAFAAWAAFAA-NH2
- MIC (Escherichia coli [1]): 1.6 µM

Compound: CC[C@H](C)[C@H](NC(=O)[C@H](CC1CCCCC1)NC(=O)[C@@H](Cc1c[nH]c2ccccc12)NC(=O)[C@@H](N)CCCN)C(=O)N[C@H](Cc1ccccc1)C(=O)N[C@@H](Cc1cn(Cc2ccccc2)cn1)C(N)=O
- IC50 (Candida albicans): 1 µg/mL (≈ 1.04 µM)

Compound: CN(CC(=O)O)C(=O)[C@H](Cc1ccccc1)NC(=O)[C@@H](CCCN=C(N)N)NC(=O)[C@@H](N)Cc1ccc(O)cc1 (H-Y[dR]F[Sar]-OH)
- EC50 (Mu-type opioid receptor): 90 nM

Compound: C=CCCC[C@](C)(NC(=O)[C@H](CCCCN)NC(=O)[C@H](CC(C)C)NC(=O)[C@@H](N)Cc1ccccc1)C(=O)N[C@@H](CC(C)C)C(=O)N[C@@H](CCCCN)C(=O)N[C@@H](CCCCN)C(=O)N[C@@H](CC(C)C)C(=O)N[C@@H](CC(C)C)C(N)=O (H-FLK[S5]LKKLL-NH2)
- MIC (Escherichia coli [2]): 8 µg/mL (≈ 7.01 µM)
- MIC (Staphylococcus aureus [3]): 4 µg/mL (≈ 3.51 µM)
- MIC (Acinetobacter baumannii [4]): 4 µg/mL
- MIC (Pseudomonas aeruginosa [5]): 8 µg/mL (≈ 7.01 µM)

Compound: CC(C)(C)c1cc(Cn2cnc(C[C@H](NC(=O)[C@@H](N)Cc3c[nH]c4ccccc34)C(=O)NCc3ccccc3)c2)cc(C(C)(C)C)c1
- MIC (Staphylococcus aureus [6]): 4.4 µg/mL
- MIC (Enterococcus faecalis): 8 µg/mL (≈ 12.6 µM)

Compound: H-KRHRKVLR-OH
- Kd [7]: 46000 nM

Compound: CSCC[C@H](NC(=O)[C@@H]1CCCN1C(=O)CNC(=O)[C@H](CCCCN)NC(=O)[C@H](Cc1cnc[nH]1)NC(=O)[C@H](CO)NC(=O)[C@H](CC(C)C)NC(=O)[C@H](CCCNC(=N)N)NC(=O)[C@@H]1CCCN1C(=O)[C@H](CCCNC(=N)N)NC(=O)[C@@H](N)CCC(N)=O)C(=O)N1CCC[C@H]1C(=O)N[C@@H](Cc1ccccc1)C(=O)O
- EC50 [8]: 1.4 nM

Compound: CC(C)C[C@@H]1NC(=O)[C@@H](Cc2ccccc2)NC(=O)[C@@H](CCN)NC(=O)[C@@H](NC(=O)[C@H](CCN)NC(=O)[C@@H](NC(=O)[C@H](CCN)NC(=O)C[C@H](CN)C2CCCCC2)[C@@H](C)O)CCNC(=O)[C@H]([C@@H](C)O)NC(=O)[C@H](CCN)NC(=O)[C@H](CCN)NC1=O
- MIC (Escherichia coli [9]): 0.06 µg/mL
- MIC (Klebsiella pneumoniae): 0.125 µg/mL
- MIC (Acinetobacter baumannii [10]): 0.25 µg/mL
- MIC (Pseudomonas aeruginosa [11]): 0.06 µg/mL

Compound: CC[C@H](C)[C@H](NC(=O)[C@@H](NC(=O)[C@H](N)Cc1ccccc1)C(C)C)C(=O)N[C@@H](C)C(N)=O (H-[dF]VIA-NH2)
- inhibition [12]: 100%

Compound: CCCCCCCC(=O)N[C@@H](Cc1cnc[nH]1)C(=O)N[C@H](Cc1ccccc1)C(=O)N[C@@H](CCCNC(=N)N)C(=O)N[C@@H](Cc1ccc(-c2ccccc2)cc1)C(N)=O (Octanoyl-H[dF]R[Bip]-NH2)
- IC50 (Melanocortin receptor 3): 50 nM

Compound: O=C[C@H](C[C@@H]1CCNC1=O)NC(=O)[C@H](CC1CCCCC1)NC(=O)c1cc2ccccc2[nH]1
- IC50 (Replicase polyprotein 1a): 53 nM

Compound: Nc1nc2[nH]cc(CCc3ccc(C(=O)N[C@@H](CCC(=O)O)C(=O)O)cc3)c2c(=O)[nH]1 [PEMETREXED]
- IC50 [13]: 42 nM

Compound: C[C@@H](O)[C@@H]1NC(=O)[C@H](CCCCN)NC(=O)[C@@H](Cc2c[nH]c3ccccc23)NC(=O)[C@H](Cc2ccccc2)NC(=O)[C@@H](NC(=O)[C@H](N)Cc2ccccc2)CSSC[C@@H](C(=O)N[C@H](CO)[C@@H](C)O)NC1=O [OCTREOTIDE]
- half-life [14]: 1.5 h

Compound: N[C@H]1C=C(C(=O)O)C[C@@H]1F
- IC50 [15]: 20 nM

Compound: CCCCc1ccc(-n2cnc(C[C@H](NC(=O)[C@H](Cc3c[nH]c4ccccc34)NC(=O)[C@@H](N)Cc3cn(-c4ccc(CCCC)cc4)cn3)C(=O)NCc3ccccc3)c2)cc1
- MIC (Cryptococcus neoformans): 2.46 µg/mL (≈ 2.96 µM)

Compound: N[C@H]1C[C@@H](C(=O)O)C[C@@H]1F
- IC50 [15]: 50 nM

Compound: CC[C@H](C)[C@H]1C(=O)N[C@@H](C)C(=O)N(C)[C@@H](CC(C)C)C(=O)N[C@@H](Cc2ccc(OC)cc2)C(=O)N(C)[C@H](C)C(=O)O[C@H](C)[C@H](N(C)C(=O)[C@H](CC(C)C)N(C)C(=O)[C@H](COC)N(C)C(=O)[C@@H](OC(=O)[C@H](C(C)C)N(C)C)C(C)C)C(=O)N(C)[C@@H](COC)C(=O)N1C (NMe2Val-[Hiv][NMeS](Me)[NMeL][NMeT][NMeS](Me)[NMeI]A[NMeL]Y(Me)[dNMeA]; ester 4-C)
- IC50 (HeLa): 1.4 nM

Compound: CC(=O)N[C@@H](Cc1ccncc1)C(=O)N[C@H](Cc1ccc(I)cc1)C(=O)N[C@@H](CCCNC(=N)N)C(=O)N[C@@H](Cc1c[nH]c2ccccc12)C(N)=O (Ac-[4Pal][dPhe(4-I)]RW-NH2)
- IC50 (Melanocortin receptor 3): 7 nM

Compound: H-FLKLLKKLL-NH2
- MIC (Escherichia coli [2]): 32 µg/mL
- MIC (Staphylococcus aureus [3]): 16 µg/mL
- MIC (Acinetobacter baumannii [4]): 16 µg/mL
- MIC (Pseudomonas aeruginosa [5]): 8 µg/mL

Compound: O=C[C@H](C[C@@H]1CCNC1=O)NC(=O)[C@H](Cc1cccc(F)c1)NC(=O)c1cc2ccccc2[nH]1
- IC50 (Replicase polyprotein 1a): 40 nM

Compound: Cc1ccc(C[C@H](NC(=O)[C@@H](Cc2ccccc2)NC(=O)[C@@H](Cc2c[nH]c3ccccc23)NC(=O)[C@@H](N)CCCN)C(=O)N[C@H](Cc2ccccc2)C(=O)N[C@@H](Cc2cn(Cc3ccccc3)cn2)C(N)=O)cc1
- IC50 (Candida albicans): 15.3 µg/mL (≈ 15.3 µM)

Reference: ChEMBL document CHEMBL6083278, “Unnatural Amino Acids: Strategies, Designs, and Applications in Medicinal Chemistry and Drug Discovery” (J Med Chem, 2024)
